Legend:
[1] = target: T1, full-length hHDAC6 (Homo sapiens, UniProt Q9UBN7); experiment: EMSA activity-based inhibition assay, HDAC6; format: biochemical; details: for fold improvement of potency on moving the fluorine substituent: ortho- and meta-fluoro versus parent analog, selectivity was lost
T1 sequence (Q9UBN7 1-1215): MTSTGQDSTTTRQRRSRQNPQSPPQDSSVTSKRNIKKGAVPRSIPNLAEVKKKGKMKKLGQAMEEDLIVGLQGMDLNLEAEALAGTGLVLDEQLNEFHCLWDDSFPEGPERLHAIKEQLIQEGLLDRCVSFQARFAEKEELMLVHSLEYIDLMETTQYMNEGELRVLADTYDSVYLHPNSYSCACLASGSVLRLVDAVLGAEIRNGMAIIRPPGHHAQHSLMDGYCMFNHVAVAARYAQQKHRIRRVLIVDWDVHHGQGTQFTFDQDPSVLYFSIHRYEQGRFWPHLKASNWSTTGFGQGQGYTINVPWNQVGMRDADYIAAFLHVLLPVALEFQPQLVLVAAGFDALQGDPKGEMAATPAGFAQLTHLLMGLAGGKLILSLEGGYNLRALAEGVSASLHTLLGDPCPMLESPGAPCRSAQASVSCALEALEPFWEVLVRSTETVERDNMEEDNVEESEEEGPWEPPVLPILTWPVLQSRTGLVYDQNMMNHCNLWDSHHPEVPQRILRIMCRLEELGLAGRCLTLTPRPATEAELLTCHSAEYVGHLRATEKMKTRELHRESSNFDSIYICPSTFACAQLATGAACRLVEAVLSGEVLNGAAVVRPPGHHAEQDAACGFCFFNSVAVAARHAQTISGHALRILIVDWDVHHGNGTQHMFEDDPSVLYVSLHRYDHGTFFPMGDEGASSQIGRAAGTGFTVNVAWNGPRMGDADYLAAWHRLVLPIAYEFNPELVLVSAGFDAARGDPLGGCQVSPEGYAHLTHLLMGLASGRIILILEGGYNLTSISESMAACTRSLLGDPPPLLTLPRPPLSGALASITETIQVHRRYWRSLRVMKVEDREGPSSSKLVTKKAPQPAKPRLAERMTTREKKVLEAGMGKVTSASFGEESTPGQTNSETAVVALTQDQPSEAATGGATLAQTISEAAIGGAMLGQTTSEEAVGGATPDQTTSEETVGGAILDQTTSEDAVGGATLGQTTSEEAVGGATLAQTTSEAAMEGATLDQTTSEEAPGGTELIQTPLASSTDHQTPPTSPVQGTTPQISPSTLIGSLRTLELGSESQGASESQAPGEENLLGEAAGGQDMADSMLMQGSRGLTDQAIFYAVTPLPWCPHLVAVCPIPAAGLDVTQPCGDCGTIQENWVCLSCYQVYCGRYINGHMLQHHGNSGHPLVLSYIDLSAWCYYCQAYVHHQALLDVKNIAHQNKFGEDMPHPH

[2] = target: T2, drHDAC6 CD2 (Danio rerio, UniProt F8W4B7); experiment: Fluorescence polarization; format: binding, Danio rerio (zebrafish); details: orthogonal fluorescence polarization assay
T2 sequence (F8W4B7 440-798 limits assumed): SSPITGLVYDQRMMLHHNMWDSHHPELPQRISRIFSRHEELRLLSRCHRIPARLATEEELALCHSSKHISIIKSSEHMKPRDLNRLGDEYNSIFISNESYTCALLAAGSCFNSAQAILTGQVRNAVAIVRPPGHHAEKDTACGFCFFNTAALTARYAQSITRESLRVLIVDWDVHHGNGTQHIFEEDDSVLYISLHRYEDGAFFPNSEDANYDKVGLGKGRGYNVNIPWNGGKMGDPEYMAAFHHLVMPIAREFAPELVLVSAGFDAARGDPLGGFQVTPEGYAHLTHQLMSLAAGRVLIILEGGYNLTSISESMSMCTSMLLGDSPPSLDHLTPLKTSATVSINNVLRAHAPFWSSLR

[3] = system: six leukemic cancer cells; experiment: Cytotoxicity assay; format: cell-based; details: 72 h, read-out: average anti-proliferative IC50
[4] = system: 'normal' MRC9 lung fibroblasts; experiment: Cytotoxicity assay; format: cell-based; details: 72 h
[5] = system: MV4–11 cells; experiment: FACS apoptosis detection assay; format: cell-based
[6] = system: Ac-α-tubulin in HeLa cells; experiment: Immunofluorescence assay, Ac-α-tubulin; format: cell-based; details: 6 h
[7] = system: Ac-histone H3 in MV4–11 cells; experiment: Western blot of Ac-histones; format: cell-based
[8] = target: T3, HDAC6 (Homo sapiens, UniProt Q9UBN7); experiment: Intact mass spectrometry analysis of the enzyme; details: intact mass spectrometry on treatment with compound
T3 sequence (Q9UBN7 1-1215): T1 sequence (Q9UBN7 1-1215)

[9] = system: Ac-histone in HeLa cells; experiment: Immunofluorescence assay, Ac-histone; format: cell-based; details: 0.1 μM or 2 μM, 6 h
[10] = system: Ac-α-tubulin in MV4–11 cells; experiment: Western blot of Ac-α-tubulin; format: cell-based
[11] = system: MV4–11 cells; experiment: Detection of ROS generation; format: cell-based; details: MV4–11, 10 μM, up to 4 h, versus DMSO control
[12] = Pooled human whole blood stability assay; format: in vitro ADME; details: triplicate
[13] = Mouse plasma stability assay; format: in vitro ADME; details: triplicate

O=C(NO)c1ccc(CN(Cc2ccccc2F)S(=O)(=O)c2cc(F)c(F)c(F)c2F)cc1 [Compound 13]
fold improvement of potency on moving the fluorine substituent [1]: 2 fold

O=C(NO)c1ccc(CN(Cc2cccnc2)S(=O)(=O)c2cc(F)c(F)c(F)c2F)cc1 [TO-317]
potency of interaction with drHDAC6 CD2 (FP) [2]: 4 nM | IC50 [3]: < 2000 nM | activity in normal cells [4]: minimal activity | early and late apoptotic cell populations, combined ([5]; MV4–11, 0.25 μM): 11% | early and late apoptotic cell populations, combined ([5]; MV4–11, 2 μM): 65% | early and late apoptotic cell populations, combined ([5]; MV4–11, 4 μM): 73% | necrosis (UL sub-population) ([5]; MV4–11, across the range of concentrations tested, versus DMSO control): does not show statistically different changes to necrosis | accumulation of Ac-α-tubulin (red stain) at 2 μM [6]: significant accumulation | Ac-histones accumulation ([7]; MV4–11 cells, at 0.25 μM, 6 hours): minimal accumulation | concentration required to observe distinct acetylation of H3 histone ([7]; cells not given): ~ 0.75 μM | covalent modification of the enzyme [8]: no covalent modification of the enzyme was observed | levels of Ac-histone (green stain) [9]: do not change significantly | Ac-α-tubulin levels at 0.25 μM ([10]; MV4–11 cells, 0.25 μM, 6 hours): significant increase | lowest concentration giving preferential increase in acetylated α-tubulin ([10]; dose-dependent, cells not given): 50 nM | ROS generation [11]: markedly increased levels of ROS after 2 h incubation | Remaining percentage concentration, 0 min [12]: 100% | Remaining percentage concentration, 0 min [13]: 100%

O=C(CCCCCCNC(=O)c1cnc(N(c2ccccc2)c2ccccc2Cl)nc1)NO [Citarinostat, reference compound]
accumulation of Ac-α-tubulin (red stain) at 2 μM [6]: slightly less prominent

O=C(NO)c1ccc(CN(Cc2cccc(F)c2)S(=O)(=O)c2cc(F)c(F)c(F)c2F)cc1 [Compound 12]
fold improvement of potency on moving the fluorine substituent [1]: 2 fold

O=C(NO)c1ccc(CN(Cc2ccncc2)S(=O)(=O)c2c(F)c(F)c(F)c(F)c2F)cc1 [Compound 8]
HDAC6 selectivity ([1]; against 4 representative HDAC homologs (Table 1)): > 71 fold

O=C(NO)c1ccc(CN(Cc2ccccn2)S(=O)(=O)c2cc(F)c(F)c(F)c2F)cc1 [Compound 14]
fold more potent against HDAC6 compared to 9 ([1]; relative to 9): 2 fold
